Measured values from patent US8765688B2, “Anti-dandruff compositions containing peptides” (priority 2007, dated 2014).
Ends that are not written are not given here.

Columns and labels:
Type in all cases: cell-based
[1] = tested on: Malassezia furfur; test: Kinetics of the effect of P18 on M. furfur in the presence of a shampoo basic formulation, CFU; settings: 2.3-0.23 g/l, 5 min to 24 hours, 10% (v/v) formulation 31-3
Procedure: The effect of the peptide […]; carboxy-terminal end amidated; […] The experiments were carried out as follows: The following shampoo basic formulation was prepared: The components Texapon NSO and Tego Betain L7 were mixed and dissolved. The pH was adjusted to pH 6-7 with NaOH. The effect of P18, ZPT and Climbazole against M. furfur was analyzed as follows: Growth medium: […]-Pityrosporum medium according to DSMZ 40 g/L malt extract 20 g/L ox bile 10 g/L Tween 40 The components were sterilized at 121° C., 1 bar superatmospheric pressure for 20 minutes. 2 g/L of olive oil (sterilized by filtration and, after autoclaving, added to the other components) Since it was a two-phase medium, the complete medium was treated with sonication in order to enlarge the phase boundary. For agar plates, if appropriate, […] of agar agar were added to the medium. The growth test was carried out as follows: […]. furfur and incubated with shaking overnight at 30° C. and 200 rpm. A 96-well microtiter plate was filled with in each case 100 μl of […]. furfur suspension of the overnight culture. […] The peptide P18 was dissolved in water with a concentration of 230 g/l. […] The microtiter plate was incubated with shaking at 30° C.

[2] = tested on: Bacillus subtilis; test: Growth inhibition of Gram-positive bacteria by P18 (optical density at 620 nm); settings: for optical density at 620 nm: B. subtilis suspension, 25 μM P18 solution, mean of 8 mixtures
Procedure: (§1) The growth inhibition by P18 was investigated on Gram-positive and Gram-negative bacteria. Shin et al. 1999 (loc.cit.) had already detected an inhibition on the model organisms Escherichia coli and Bacillus subtilis within a period up to 18 hours.
(§2) The growth medium used for this was LB medium as complex medium for the organisms Escherichia coli, Bacillus subtilis and Brevibacterium epidermidis. The medium comprised 10 g of trypton, 5 g of yeast extract and 10 g of NaCl per liter.
(§3) The growth test was carried out as follows: A shake flask with medium was inoculated with Escherichia coli, Bacillus subtilis or Brevibacterium epidermidis and incubated with shaking overnight at 30° C. and 200 rpm. A 96-well microtiter plate was filled with in each case 100 μl LB medium and inoculated with E.-coli, B.-subtilis or B. epidermidis suspensions of the overnight culture. The bacteria suspension was adjusted at the start of the experiment to an optical density, measured at 620 nm, of about 0.02. The concentrates of the P18 inhibitor solutions were 1 mM in water.
(§4) The growth of the following mixtures was compared by measuring the optical density:
(§5) bacteria suspension without the addition of an inhibitor;
(§6) bacteria suspension and addition of an aqueous P18 solution with a final concentration of 25 μM. The aqueous P18 solution had been freshly prepared.
(§7) The growth was observed over a period of 40 hours by measuring the optical density. […] The growth of Gram-positive bacteria was inhibited initially.

[3] = tested on: Brevibacterium epidermidis; test: as above; settings: for optical density at 620 nm: B. epidermidis suspension, 25 μM P18 solution, mean of 8 mixtures
Procedure: as §1, §2, §3, §4, §5, §6, §7

[4] = tested on: Malassezia furfur; test: Incubation times with P18 from 5 minutes to 1 hour, CFU of M. furfur, compared to Zincpyrithione
Procedure: Since growth inhibition of M. furfur by the peptide P18 (P18 peptide sequence H-KWKLFKKIPKFLHLAKKF-NH2; SEQ ID NO: 3) had so far only been analyzed over incubation times of more than one hour, now the effect of the peptide P18 within the first minutes of incubation (5 minutes, 10 minutes and 20 minutes) up to the first hour after adding to the M. furfur overnight culture was tested and compared to the reference substance Zincpyrithione (Sigma Aldrich). For this, the peptide P18 and the reference substance Zincpyrithione were used in concentrations of 100 μM, 200 μM and 500 μM. The experiments were carried out as follows:
Growth medium: M472-Pityrosporum medium according to DSMZ
The components were sterilized at 121° C., 1 bar superatmospheric pressure for 20 minutes.
2 g/L of olive oil (sterilized by filtration and, after autoclaving, added to the other components)
Since it was a two-phase medium, the complete medium was treated with sonication in order to enlarge the phase boundary.
For agar plates, if appropriate, 150 g/L of agar agar were added to the medium.
The growth test was carried out as follows: A shake flask with M472-Pityrosporum medium was inoculated with M. furfur and incubated with shaking overnight at 30° C. and 200 rpm.
A 96-well microtiter plate was filled with in each case 100 μl of M472-Pityrosporum medium and inoculated with M. furfur suspension of the overnight culture. The M. furfur suspension was adjusted at the start of the experiment to an optical density, measured at 600 nm, of 0.1.
The growth of the following batches was compared:
M. furfur suspension and addition of the peptide P18 with a final concentration of 100 μM, plating out after 5 minutes, 10 minutes, 20 minutes and 60 minutes
M. furfur suspension and addition of the peptide P18 with a final concentration of 200 μM plating out after 5 minutes, 10 minutes, 20 minutes and 60 minutes
M. furfur suspension and addition of the peptide P18 with a final concentration of 500 μM plating out after 5 minutes, 10 minutes, 20 minutes and 60 minutes
M. furfur suspension and addition of Zincpyrithione with a final concentration of 100 μM plating out after 5 minutes, 10 minutes, 20 minutes and 60 minutes
M. furfur suspension and addition of Zincpyrithione with a final concentration of 200 μM plating out after 5 minutes, 10 minutes, 20 minutes and 60 minutes
M. furfur suspension and addition of Zincpyrithione with a final concentration of 500 μM plating out after 5 minutes, 10 minutes, 20 minutes and 60 minutes
The microtiter plate was incubated with shaking at 30° C.
After the incubation times indicated above, the colony-forming units (CFU) were determined by plating out 50 μl from each of the suspensions and, after incubation for 6 days, counting the colonies. The CFU was determined in order to exclude an influence of the two-phase medium and also the growth form of M. furfur on the optical density. The experiments were independently repeated.

Substance: KWKLFKKIPKFLHLAKKF-NH2 [P18, KWKLFKKIPKFLHLAKKF-NH2]
- effect on M. furfur in the presence of shampoo basic formulation (in words) [1]: superior characteristics as compared to Zincpyrithione or Climbazole
- growth of B. subtilis (in words) ([2]; 25 μM, within 40 hours): achieved growth densities comparable with the noninhibited culture
- optical density at 620 nm ([2]; incubation time 16 h): 0.25
- optical density at 620 nm ([2]; incubation time 24 h): 0.96
- optical density at 620 nm ([2]; incubation time 40 h): 0.67
- growth of B. epidermidis (in words) ([3]; 25 μM, within 40 hours): achieved growth densities comparable with the noninhibited culture
- optical density at 620 nm ([3]; incubation time 16 h): 0.29
- optical density at 620 nm ([3]; incubation time 24 h): 0.56
- optical density at 620 nm ([3]; incubation time 40 h): 1.24
- number of living Malassezia furfur cells ([4]; after the first 10 minutes of incubation): considerably reduced as compared to incubation with Zincpyrithione
- colony-forming units after the indicated incubation time ([4]; final concentration 100 μM, 5 minutes): >1000
- colony-forming units after the indicated incubation time ([4]; final concentration 100 μM, 10 minutes): >1000
- colony-forming units after the indicated incubation time ([4]; final concentration 100 μM, 20 minutes): 604
- colony-forming units after the indicated incubation time ([4]; final concentration 100 μM, 60 minutes): 149 ± 60
- colony-forming units after the indicated incubation time ([4]; final concentration 200 μM, 5 minutes): >1000
- colony-forming units after the indicated incubation time ([4]; final concentration 200 μM, 10 minutes): >1000
- colony-forming units after the indicated incubation time ([4]; final concentration 200 μM, 20 minutes): >1000
- colony-forming units after the indicated incubation time ([4]; final concentration 200 μM, 60 minutes): 52 ± 16
- colony-forming units after the indicated incubation time ([4]; final concentration 500 μM, 5 minutes): >1000
- colony-forming units after the indicated incubation time ([4]; final concentration 500 μM, 10 minutes): 398 ± 290
- colony-forming units after the indicated incubation time ([4]; final concentration 500 μM, 20 minutes): 26 ± 6
- colony-forming units after the indicated incubation time ([4]; final concentration 500 μM, 60 minutes): 1 ± 1
